The source of these data is patent US20170165230A1, “USE OF GSK-3 INHIBITORS OR ACTIVATORS WHICH MODULATE PD-1 OR T-BET EXPRESSION TO MODULATE T CELL IMMUNITY” (priority 2014, published 2017).

“Also recorded” adds a separate entry of the source.

Data set [1] relates to PD-1 expression on T-cells. In words: FACS of PD-1 expression on T-cells activated with anti-CD3 (2C11) for 48 hours. The class given is cell-based, mouse. The conditions noted are these: anti-CD3 (2C11) 48 hours; anti-CD3 increased MFI by 5 fold (FIG. 4). The procedure:
For anti-CD3 activation of T-cells, cells were stimulated with 5 μg/ml of anti-CD3 (2C11) in RPMI medium supplemented with 10% FCS, 2 mM glutamine, 50 uM 2-ME, 100 U/ml penicillin/streptomycin for 2-4 days using established methods.
(§1) The presence of cells was confirmed by using forward scatter height or side scatter height n the form of a dot and contor plots. […] Non-stained cells were used a control.
(§2) The chemical structures of each inhibitor are shown on bottom and right sides of figure.
as §2

Data set [2] deals with PD-1 expression on T-cells. In words: FACS of PD-1 expression induced by mixed lymphocyte reaction (C57Bl/6 + ICR/CD1 spleen T-cells, 60 hours). Format: cell-based, mouse. The note with it: C57Bl/6 + ICR/CD1 co-culture, 60 hours (FIG. 5, 6).
Procedure: Cell flow cytometry with an acquisition of 10 000 events and data analysis using FlowJo).
C57BL/6J (B6) or outbred mouse CRI/CD1 T-cells were cultivated either alone or together at equal numbers (1×10^6/ml) for 60 hours in the presence or absence of the inhibitor followed by the harvesting of cells and FACs analysis for PD-1 using anti-PD-1-PE.
Data set [3] has as its system PD-1 expression on T-cells. In words: FACS of PD-1 expression on Con A activated T-cells. Format: cell-based, mouse. The conditions noted are these: Con A activated T-cells (FIG. 5f). An excerpt:
Another mode of T-cell activation involves the stimulation by the lectin Concanavalin A (Con A) (e, f). ConA binds α-D-mannosyl and α-D-glucosyl residues (two hexoses differing only by the alcohol on carbon 2) in terminal position of ramified structures from B-Glycans (reach in α-mannose, or hybrid and bi-antennary glycanes complexes). Con A is known to induce cell agglutination/clustering and to stimulate mouse T-cell subsets giving rise to four functionally distinct T cell populations, including precursors to suppressor T-cell (Dwyer and Johnson 1981 Clin Exp Immunol 46 (2): 237-49). (e) contains the bright field images of Con A activated cells with cell clustering observed in the presence and absence of GSK-3 inhibitor TDZD-8.

For data set [4], the system named is PD-1 expression on T-cells. In words: Oral administration in drinking water, PD-1 expression on ex vivo anti-CD3 activated spleen cells. The note with it: B6 mice. Further details: species or system mouse. How it is done:
. […] By 48 hours, all water was consumed. […] Non-stained cells were used a control.

Data set [5] in a line: Oral administration in drinking water, cell numbers and viability of spleen cells.
Procedure: A stock solution 1 mg/ml was made in 1% DMSO. In one set, the 10 ug stock solution was diluted in 10 ml of water. […] By 48 hours, all water was consumed. Mice were then sacrificed, spleen extracted on 60 hours, cells were spun down at 1,800 for 3 min and ACK for removal of red blood cells (RBCs) treated for 2 min. Cells were then centrifuged at 1,800 rpm for 3 min and the absence of red blood cells was confirmed by the loss of red color in the cell pellet. […] An additional stimulant of 2 ug/ml ConA was also added at 48 hours of culture.
Ex vivo extracted cells were then cultured in 48 well tissue culture plates for 48 hours in the presence of anti-CD3 on plates (1 ug/ml).
Data set [6] has as its system PD-1 expression on OT-1 T-cells. In words: FACS of PD-1 surface expression on OT-1 T-cells stimulated in vitro by OVA peptide presented by EL-4 cells. The class given is cell-based, mouse. The conditions noted are these: OT-1 T-cells stimulated in vitro by OVA peptide presented by EL-4 cells (FIG. 1, 2, 3, 11). The procedure:
(§3) Non-stained cells were used a control.
(§4) Cells were then stained for FACs with APC conjugated anti-PD-1 (CD279) (a, b) or subjected to qPCR (c, d) as described in the Materials and Methods. Reverse transcription was performed using the RNA polymerase chain reaction (PCR). PCRs were amplified for 40 cycles in a sequence detection system. mRNA expression was normalized against GAPDH (Glyceraldehyde 3-phosphate dehydrogenase) expression using the standard curve method.
T-cells were incubated in the presence or absence of anti-PD-1 and then subjected to FACs or qPCR as described in the Materials and Methods.

The test system of data set [7] is Tbet (Tbx21) transcription. In words: qPCR of Tbet transcription in OT-1 T-cells stimulated in vitro by OVA peptide/EL4. The class given is cell-based, mouse. The conditions noted are these: OT-1 T-cells stimulated by OVA peptide in vitro (FIG. 1d). How it is done: (§5) Single-strand cDNA was synthesized with an RT-PCR kit (Qiagen, Hilden, Germany) according to the manufacturer's instructions. Reverse transcription was performed using the RNA polymerase chain reaction (PCR) core kit (Applied Biosystems). Relative quantitative real-time PCR used SYBR green technology (Roche) on cDNA generated from the reverse transcription of purified RNA. After preamplification (95° C. for 2 min), the PCRs were amplified for 40 cycles (95° C. for 15 s and 60° C. for 60 s) in a sequence detection system (PE Prism 7000; Perkin-Elmer Applied Biosystems, USA). mRNA expression was normalized against GAPDH expression using the standard curve method.
as §4
On the technique in general: In qPCR the cycle at which signal appears reflects the starting amount.

The next data set relates to CD3 expression. In words: FACS of CD3 expression on OVA-activated OT-1 T-cells. The class given is cell-based, mouse.
Source text: as §1

In data set [8] the test system is FasL expression. In words: FACS of FasL expression on OVA-activated OT-1 T-cells. Format: cell-based, mouse.
Source text: as §3

The next data set concerns EL4 tumor cells. Briefly: Intradermal EL4 / EL4-OVA tumor model in OT-1 Tg mice, tumor growth. The class given is in vivo, mouse. The conditions noted are these: OVA peptide 2, 5 and 10 ug, 10 days, young mice 4-6 weeks (FIG. 9a).
For another data set, the system named is PD-1 transcription. Briefly: qPCR of PD-1 transcription in cells from EL4-OVA tumor-bearing OT-1 Tg mice. The class given is in vivo, mouse. The conditions noted are these: cells at day 12, mice 4-6 weeks (FIG. 9b). The procedure:
as §5, with “method. […]” for “method.”

The next data set relates to Tbet transcription. In words: qPCR of Tbet transcription in cells from EL4-OVA tumor-bearing OT-1 Tg mice. The note with it: cells at day 12, mice 4-6 weeks (FIG. 9c). The class given is in vivo, mouse. The procedure: as §5, with “method. […]” for “method.”
Data set [9] relates to PD-1 expression on T-cells. In words: FACS of PD-1 expression on T-cells from EL4-OVA tumor-bearing mice treated in vivo. Further details: species or system mouse. The conditions noted are these: EL4-OVA model.
For data set [10], the system named is FasL expression. In words: FACS of FasL expression on T-cells from EL4-OVA tumor-bearing mice treated in vivo. Further details: species or system mouse. The conditions noted are these: negative control (FIG. 9d). The source says: Tumors were visible after 1 wk and grew progressively in an encapsulated fashion. Mice were young at 4-6 weeks.
The test system of data set [11] is Interferon-γ1 (IFN-γ1) expression. In words: FACS of IFN-γ1 expression on T-cells from EL4-OVA tumor-bearing mice treated in vivo. Further details: species or system mouse. The conditions noted are these: EL4-OVA model (FIG. 12b,c).
The subject of another data set is CD69 expression. In words: FACS of CD69 expression on T-cells from EL4-OVA tumor-bearing mice treated in vivo. Set-up: species or system mouse. The note with it: EL4-OVA model (FIG. 12d).
Data set [12] concerns CTLA-4 (CD152) expression. In words: FACS of CTLA-4 (CD152) expression on T-cells from EL4-OVA tumor-bearing mice treated in vivo. Further details: species or system mouse. The note with it: EL4-OVA model (FIG. 12e).
In data set [13] the test system is panel of 24 other protein kinases. The note with it: selectivity; cited from earlier work.
Another data set concerns EL4-OVA target cells. In words: Cytotoxicity assay: OT-1 CD8+ CTL killing of EL4-OVA target cells. The conditions noted are these: over a range of target:effector ratios (FIG. 1e,f).

Procedure for EL4-OVA target cells: Cytotoxicity was assayed using a Cytotox 96 nonradioactive kit (Promega) following the instructions provided and using established methods. In brief, purified T cells were plated in 96-well plates at the effector/target ratios shown using 10^4 EL4 (ova peptide-pulsed) target cells per well in a final volume of 200 μl per well using RPMI lacking phenol red. Target cells per well were in a final volume of 200 μl per well using RPMI lacking phenol red. Lactate dehydrogenase release was assayed after 4 h incubation at 37° C. by removal of 50 μl supernatant from each well and incubation with substrate provided for 30 min and the absorbance read at 490 nm using the Thermomax plate reader (Molecular Devices). Percentage cytotoxicity=((experimental effectorspontaneous−target spontaneous)/(targetmaximum−target spontaneous))×100.

For `COc1ccc(CNC(=O)Nc2ncc([N+](=O)[O-])s2)cc1` [AR-A014418, N-[(4-Methoxyphenyl)methyl]-N′-(5-nitro-2-thiazolyl)urea], in data set [1], the “inhibition of anti-CD3 induced increase in PD-1 expression (MFI)” value (“inhibition of anti-CD3 induced increase” below) was above 45%. Besides, the “PD-1 expression induced in the MLR (FACS)” value in [2] is reported as “inhibition of PD-1 expression”.
With `Cn1sc(=O)n(Cc2ccccc2)c1=O` [TDZD-8, 1,2,4-Thiadiazolidine-3,5-dione, 2-methyl-4-(phenylmethyl)], the “inhibition of anti-CD3 induced increase” value in [1] is given as above 50%. For the same compound, the “fewer PD-1 positive cells” value in [3] is above 45%. The “percentage of T-cells expressing PD-1 after oral administration” value in data set [4] (drug in drinking water (FIG. 13e)) is on record as “reduce the percentage of T-cells expressing PD-1”. Also, in data set [4] (drug in drinking water, ex vivo anti-CD3 48 hours (FIG. 13d)), the “PD-1 expression on ex vivo cells after oral administration (FACS)” value was “lower expression of PD-1”. Further, in data set [5] (48 hours ex vivo culture (FIG. 13b,c)), the “cell death / viability of cells in ex vivo culture after oral administration” value is on record as “no indication of cell death; also recorded: no obvious long-term effect on viability”. The “spleen cell numbers, drug treated versus untreated mice” value in data set [5] (oral, 2 mg/kg, spleen extracted at 60 hours) is “No difference on cell numbers”.
With `Cc1c[nH]c(-c2cnc(NCCNc3ccc(C#N)cn3)nc2-c2ccc(Cl)cc2Cl)n1.Cl` [CHIR-99021, 6-(2-(4-(2,4-dichlorophenyl)-5-(4-methyl-1H-imidazol-2-yl)pyrimidin-2-ylamino)ethylamino)nicotinonitrile hydrochloride], in data set [1], the “inhibition of anti-CD3 induced increase” value is above 55%. The “PD-1 expression induced in the MLR (FACS)” value in data set [2] is reported as “inhibition of PD-1 expression”.
On to `Cn1cc(C2=C(c3ccc(Cl)cc3Cl)C(=O)NC2=O)c2ccccc21` [SB216763, 3-(2,4-dichlorophenyl)-4-(1-methyl-1H-indol-3-yl)-1H-pyrrole-2,5-dione], for which, in data set [6], the “PD-1 surface expression (FACS profile)” value is recorded as “reduced PD-1 expression; also recorded: decreased the number of cells expressing PD-1”. For the same compound, the “Tbet transcription (qPCR)” value in [7] is on record as “increased Tbet transcription”. For the same compound, the “CD3 expression (FACS profile)” value in the data set with CD3 expression is “unaltered CD3 expression”. For the same compound, the “FasL expression (FACS profile)” value with FasL expression [8] was “unaltered FasL expression”. For the same compound, the tumor growth entry in the data set on EL4 tumor cells was “prevented tumor growth at all concentrations of OVA peptide”. In addition, the “PD-1 transcription in vivo (qPCR)” value in the data set on PD-1 transcription was “inhibition of PD-1 transcription at all doses of OVA peptide”. Further, the “Tbet transcription in vivo (qPCR)” value with Tbet transcription was “increased Tbet transcription”. The “PD-1 expression on T-cells after in vivo administration (flow cytometry)” value in [9] (mice 4-6 weeks (FIG. 9d)) is given as “PD-1 expression is reduced”. In addition, in [9] (tumor elimination (FIG. 12a)), the “PD-1 expression on T-cells after in vivo administration (FACS)” value is listed as “down-regulation of PD-1”. Also, the “FasL expression after in vivo administration (flow cytometry)” value in the data set on FasL expression [10] is “absence of an effect on FasL expression”. The “IFN-γ1 expression after in vivo administration (FACS)” value in data set [11] is recorded as “increase expression of IFN-γ1 on a greater number of cells”. Moreover, the “CD69 expression after in vivo administration (FACS)” value with CD69 expression is on record as “minor increase in CD69 expression”. Moreover, in data set [12], the “CTLA-4 expression after in vivo administration (FACS)” value is “minor increase”. Besides, in [13], the “inhibition of a panel of 24 other protein kinases” value is recorded as “Neither compound significantly inhibited any member”. Moreover, the “OT-1 CTL killing of EL4-OVA targets (CTL function)” value with EL4-OVA target cells is on record as “increase CTL function”.
